Experimental data published in paper PMC6432920 (Journal of medicinal chemistry, 2017).
Like-named read-outs stand apart in the source and are kept apart here.

Assays:
[1] = human liver microsomes; cited from earlier work
[2] = one dose treatment, nude mice bearing MCF-7 xenograft tumors; cited from earlier work

For COc1ccc2c(c1)NC(=O)CN2c1nc(C)nc2ccccc12 [Compound 2, 7-Methoxy-4-(2-methylquinazolin-4-yl)-3,4-dihydroquinoxalin-2(1H)-one], the “metabolic stability in vitro t1/2” value [1] is listed as 55 min, the lethal dose [2] is listed as 4 mg/kg and the body weight end (0.25 mg/kg iv Q5D × 4) is listed as 25.96 ± 1.54 g. The body weight start (0.25 mg/kg iv Q5D × 4) was 22.44 ± 1.27 g, the body weight end (0.5 mg/kg iv Q5D × 4) was 23.85 ± 1.57 g and the body weight start (0.5 mg/kg iv Q5D × 4) was 22.28 ± 1.33 g. For the same compound, the body weight end (1.0 mg/kg iv Q5D × 4) was 20.50 ± 3.27 g, the body weight start (1.0 mg/kg iv Q5D × 4) was 22.13 ± 1.24 g and the signs of toxicity (mice, 1.0 mg/kg) was “without obvious signs of toxicity”.
